Measurements taken from patent US11407811B2, “Fusion protein, preparation method therefor and use thereof” (JIANGSU RONGTAI BIOTECH CO., LTD., priority 2017, dated 2022).

Tests used:
[1] = system: xylene-induced ear swelling in mice; assay: Xylene-induced ear swelling in mice; format: in vivo; conditions: 200 mg/kg (positive control)
Method: 80 Kunming mice were divided into 8 groups with 10 mice for each group and numbered. A physiological saline group was used as a blank control group, an aspirin group (200 mg/kg) was used as a positive control group, and fusion protein I, protein II, protein III, protein IV and protein V at high, medium and low doses (128, 32, 8 mg/kg) were used as experimental groups. Mice were administered once by injection, while EDSM needed to be administered twice a day for 5 consecutive days. The blank control group was given an equal volume of physiological saline. After the fifth day, 0.05 mL of xylene was applied to both sides of the right ears of the mice to induce inflammation, and the left ears were not applied and were normal ears. After 2 h, the mice were sacrificed by dislocation, and the ears were cut along the auricle. Ear pieces were taken with a puncher and weighed, and the swelling degree and swelling rate were calculated. Swelling degree=right ear piece weight-left ear piece weight, swelling rate=(swelling degree/left ear piece weight)×100%.

[2] = system: human umbilical vein endothelial cells (HUVEC); assay: Three-dimensional transwell assay, migration of HUVEC; format: cell-based; conditions: dose 8.0 · 10^−6 μg/mL
Method: Human umbilical vein endothelial cells (HUVECs) were cultured with endothelial cell culture fluid containing 5% fetal bovine serum and 1×ECGS in a 5% CO2 incubator at 37° C., to a confluence of 90% or more, and then inhibitory effects of fusion protein I, protein II, protein III, protein IV, and protein V on migration of endothelial cells were detected by transwell assay, in which only endothelial cells HUVEC of passage 2 to 8 were used, and the specific operation was as follows.
(1) 10 mg/mL Matrigel was diluted with a DMEM medium at a ratio of 1:4, coated on a transwell chamber membrane, and air-dried at room temperature.
(2) HUVEC cells cultured to logarithmic phase were digested with 0.2% EDTA, collected, washed twice with PBS, followed by resuspended in an endothelial cell culture liquid containing 0.1% BSA, counted under a microscope, and the cell concentration was adjusted to 1×10^5 cells/mL;
(3) Test solutions for each group were formulated and diluted to 100 μL with a cell culture liquid containing 0.1% BSA;
Groups were divided as follows:
Blank control group: a cell culture liquid containing no drug;
Endostar group: 5 mg/mL Endostar solution diluted to a predetermined concentration with a cell culture liquid containing no drug; […]
(4) The cells were inoculated into a transwell chamber at 100 μL per well, and test solutions for each group were added to the chamber. To a 24-well plate, 0.6 mL of endothelial cell culture liquid containing 5% fetal bovine serum and 1×ECGS was added to stimulate cell migration, and incubated at 5% CO2 for 24 h at 37° C.
(5) The culture liquid in the well was discarded. The cells were fixed with 90% alcohol at room temperature for 30 min, stained with 0.1% crystal violet for 10 min at room temperature, and rinsed with water. Un-migrated cells in the upper layer were gently wiped off by a cotton swab. The observation was carried out under microscope and four fields of view were selected for taking photos and counting. The migration inhibition (MI) was calculated according to the formula: […]
where Ntest is the migration cell number in the test group, and Ncontrol is the migration cell number in the blank control group.
The test was repeated 3 times independently. The results obtained from the test were calculated as mean±SD, and statistical t-test was performed. P<0.05 was considered as a significant difference, and P<0.01 was considered as an extremely significant difference.

[3] = system: adjuvant arthritis in rat; assay: Chronic inflammation of adjuvant arthritis in rat; format: in vivo; design: key to Clinical score Whole body: sum of hind/fore foot, ear, nose, tail scores; full score 8
Method: 80 SPF SD rats were randomly divided into 8 groups. Rats in each group were lightly anesthetized with ether. Then, 0.1 mL of complete Freund's adjuvant containing inactivated Mycobacterium tuberculosis was injected subcutaneously into the left hind foot of the rats. Primary arthritis occurred in the left hind foot of the rat, and at about 13 days post-modeling, secondary arthritis occurred in the right hind foot. A blank control group was injected with an equal volume of physiological saline. The drug was administered 13 days after modeling. A methotrexate group was administered by injection every 5 days for 15 days, 4 times in total; the fusion protein I, protein II, protein III, protein IV, and protein V at high, medium and low doses (128 mg/kg, 32 mg/kg, 8 mg/kg) were administered by injection every 5 days for 15 days.
Using a foot volume measuring method, a marker was made with a fat-soluble marker at the left and right posterior ankle joint of each rat, and the left and right hind feet of the animal were respectively immersed in the volume measuring device. The immersion depth was bounded by the marker, and the reading value at the scale pipette of the device was the initial volume of the animal's left and right hind feet.
The day of modeling was considered as the 0th day and recorded as d0. The volume of the left hind foot (modeling foot) was measured from the first day d1 after modeling every 2 days. When the swelling occurred (i.e., secondary arthritis occurred) at the contralateral non-inflammatory foot (right hind foot), the administration was started. The volume of the left and right hind feet was measured every 2 days, and the degree of primary and secondary toe swelling was determined, which was calculated as follows:
Primary toe swelling (mL)=left hind foot volume on the day of measurement-initial volume of left hind foot
Secondary toe swelling (mL)=right hind foot volume on the day of measurement-initial volume of right hind foot 2. Clinical score
Systemic score: the systemic score was taken every 2 days after the onset of secondary inflammation.
Hind foot: no swelling=0 score, one hind foot swelling=1 score, two hind feet swelling=2 scores;
Forefoot: no swelling=0 score, one forefoot swelling=1 score, two forefeet swelling=2 scores;
Ear: no redness and nodules=0 score, redness or nodules in one ear=1 score, redness and nodules in both ears=2 scores;
Nose: no swelling=0 score, obvious swelling=1 score;
Tail: no nodules=0 score, with nodules=1 score; full score was 8 scores.
Arthritis index score: the arthritis index score was performed every 2 days after the onset of secondary inflammation.
The initial body weight of each group of rats was weighed before modeling. The body weight was measured every 2 days from d1 after modeling, from which the initial body weight was subtracted to obtain the weight gain of each group of rats.

[4] = system: melanoma cell line B16F10; assay: MTT assay, proliferation of melanoma cell B16F10; format: cell-based; conditions: dose 5 μg/mL
Method: (§1) The MTT assay was used to detect the inhibitory effect of the integrin blocker fusion protein obtained in Example 1 on the proliferation of various tumor cells, including melanoma cell B16F10, gastric cancer cell MGC-803, lung cancer cell A549, liver cancer cell Hep-G2, breast cancer cell MDA-MB-231, colon cancer cell HCT-116, human glioma U87, and cervical cancer cell Hela.
(§2) The tumor cells were cultured in a 5% CO2 incubator at 37° C. to a density of 90% or more, and collected by trypsinization. The cells were resuspended in the culture liquid and counted under a microscope. The cell concentration was adjusted to 3.0×10^4 cells/mL. The cell suspension was inoculated into a 96-well plate at 100 μL per well and cultured overnight in a 5% CO2 incubator at 37° C. […] After the cells were fully adhered, each dilution was added to a 96-well plate at 100 μL per well, respectively. […] 20 μL of 5 mg/mL MTT was added to each well of a 96-well plate, and incubation was continued for 4 hours. The medium was aspirated and 100 μL of DMSO per well were added to dissolve. The absorbance was measured at 570 nm with a microplate reader with a reference wavelength of 630 nm, and the proliferation inhibition (PI) was calculated. The formula is as follows: […]
(§3) where Ntest is the OD value of the test group and Ncontrol is the OD value of the blank control group.
(§4) The test was repeated 5 times independently. The results obtained from the test were calculated as mean±SD, and statistical t-test was performed. P<0.05 was considered as a significant difference, and P<0.01 was considered as an extremely significant difference.

[5] = system: gastric cancer cell MGC-803; assay: MTT assay, proliferation of gastric cancer cell MGC-803; format: cell-based; conditions: dose 5 μg/mL
Method: as §1, §2, §3, §4

lung cancer cell A549 = assay: MTT assay, proliferation of lung cancer cell A549; format: cell-based; conditions: dose 5 μg/mL
Method: as §1, §2, §3, §4

liver cancer cell Hep-G2 = assay: MTT assay, proliferation of liver cancer cell Hep-G2; format: cell-based; conditions: dose 5 μg/mL
Method: as §1, §2, §3, §4

[6] = system: breast cancer cell MDA-MB-231; assay: MTT assay, proliferation of breast cancer cell MDA-MB-231; format: cell-based; conditions: dose 5 μg/mL
Method: as §1, §2, §3, §4

[7] = system: colon cancer cells HCT-116; assay: MTT assay, proliferation of colon cancer cell HCT-116; format: cell-based; conditions: dose 5 μg/mL
Method: as §1, §2, §3, §4

human glioma U87 = assay: MTT assay, proliferation of human glioma U87; format: cell-based; conditions: dose 5 μg/mL
Method: as §1, §2, §3, §4

[8] = system: cervical cancer cell Hela; assay: MTT assay, proliferation of cervical cancer cell Hela; format: cell-based; conditions: dose 5 μg/mL
Method: as §1, §2, §3, §4

[9] = system: human retinal vascular endothelial cell (HRCEC); assay: MTT assay, proliferation of human retinal vascular endothelial cell (HRCEC); format: cell-based; conditions: 5 μg/mL (positive control), 48 hours
Method: The activity of the integrin blocker polypeptide to inhibit proliferation of human retinal vascular endothelial cells was examined by MTT assay. HRCEC cells were cultured in a 5% CO2 incubator at 37° C. to a density of 90% or more, and then collected by trypsinization. The cells were resuspended in the culture liquid and counted under a microscope. The cell concentration was adjusted to 3.0×10^4 cells/mL. The cell suspension was inoculated into a 96-well plate at 100 μL per well and cultured in a 5% CO2 incubator at 37° C. overnight. […] After the cells were fully adhered, each dilution was added to a 96-well plate at 100 μL per well, respectively. […] 20 μL of 5 mg/mL MTT was added to each well of a 96-well plate, and incubation was continued for 4 hours. The medium was aspirated and 100 μL of DMSO was added per well for dissolution. The absorbance was measured at 570 nm with a microplate reader with a reference wavelength of 630 nm, and the proliferation inhibition (PI) was calculated. The formula was as follows: […]
as §3
The test was repeated 5 times independently. The results obtained from the test were calculated as mean±SD, and statistical t-test was performed. P<0.05 was considered as significant difference, and P<0.01 was considered as extremely significant difference.

For CC(=O)Oc1ccccc1C(=O)O [aspirin, reference compound], the Swelling degree ([1]; 2 h after xylene, mice) was 3.12 ± 0.34 mg and the PI ([1]; ear swelling vs control) was 53.08%.

In the case of CCN(CC)CCNC(=O)c1c(C)[nH]c(/C=C2\C(=O)Nc3ccc(F)cc32)c1C [Sunitinib, reference compound], the “MI (%)” value [2] was 82.13% and the Migration cell number [2] was 449.0 ± 153.86.

In the case of CN(Cc1cnc2nc(N)nc(N)c2n1)c1ccc(C(=O)N[C@@H](CCC(=O)O)C(=O)O)cc1 [methotrexate, reference compound], the Weight gain ([3]; 1 mg/kg (positive drug)) was 47.32 ± 17.20 g, the “Clinical score Whole body” value ([3]; 1 mg/kg (positive drug), full score 8) was 1.31 ± 0.17 and the “Foot swelling degree Left” value ([3]; 1 mg/kg (positive drug), left hind foot (primary inflammation)) was 1.19 ± 0.20 mL. For the same compound, the “Clinical score Arthritis index” value ([3]; 1 mg/kg (positive drug), maximum score 16) was 2.00 ± 0.54, the “Foot swelling degree Right” value ([3]; 1 mg/kg (positive drug), right foot (secondary inflammation)) was 1.22 ± 0.13 mL and the “therapeutic effect on primary arthritis (primary toe swelling degree)” value ([3]; methotrexate group, injection every 5 days for 15 days) was “the best effect”.

For CC(=O)O[C@H]1C(=O)[C@@]2(C)[C@H]([C@H](OC(=O)c3ccccc3)[C@]3(O)C[C@H](OC(=O)[C@H](O)[C@@H](NC(=O)c4ccccc4)c4ccccc4)C(C)=C1C3(C)C)[C@]1(OC(C)=O)CO[C@@H]1C[C@@H]2O [Taxol, reference compound], the “A570 nm/A630 nm” value [4] was 0.5996 ± 0.0139, the “PI (%)” value [4] was 52.15% and the “A570 nm/A630 nm” value [5] was 0.6011 ± 0.0148. The “PI (%)” value [5] was 50.81%, the “A570 nm/A630 nm” value (lung cancer cell A549) was 0.4269 and the “PI (%)” value (lung cancer cell A549) was 55.93%. For the same compound, the “A570 nm/A630 nm” value (liver cancer cell Hep-G2) was 0.3258, the “PI (%)” value (liver cancer cell Hep-G2) was 52.42% and the “A570 nm/A630 nm” value [6] was 0.4156 ± 0.0287. The “A570 nm/A630 nm” value [7] was 0.4103 ± 0.0287, the “PI (%)” value [7] was 53.39% and the “A570 nm/A630 nm” value (human glioma U87) was 0.2177 ± 0.0277. For the same compound, the “PI (%)” value (human glioma U87) was 68.90%, the “A570 nm/A630 nm” value [8] was 0.2114 ± 0.0275 and the “PI (%)” value [8] was 73.55%. For the same compound, the “A570 nm/A630 nm” value [9] was 0.2387 ± 0.0257 and the PI [9] was 82.28%.
